# Experimental data from PubChem BioAssay AID1259407 (Chemical Carcinogenesis Research Information System (CCRIS), 2018).
# Activity calls are given as the source filed them. How the calls were made is not given here.
# Test system: CCRIS mutagenicity, Ames/micronucleus/aberration tests
# Test: CCRIS mutagenicity studies
compound,measurement,setting,value
O=P1(N(CCCl)CCCl)NCCCO1 (stereo not drawn),mutagenic call,"Test System: AMES SALMONELLA TYPHIMURIUM, Strain/Indicator: TA100, Metabolic Activation: RAT,LIVER, HEPATOCYTES, PHENOBARBITAL, Method: PREINCUBATION",active; positive
same,mutagenic call,"Test System: AMES SALMONELLA TYPHIMURIUM, Strain/Indicator: TA100, Metabolic Activation: S-9, Method: PREINCUBATION",active; positive
same,mutagenic call,"Test System: AMES SALMONELLA TYPHIMURIUM, Strain/Indicator: TA100, Metabolic Activation: S-9, Method: STANDARD PLATE",active; positive
same,mutagenic call,"Test System: AMES SALMONELLA TYPHIMURIUM, Strain/Indicator: TA1535, Metabolic Activation: NONE, Method: SPIRAL ASSAY",active; positive
same,mutagenic call,"Test System: AMES SALMONELLA TYPHIMURIUM, Strain/Indicator: TA1535, Metabolic Activation: RAT (MALE), LIVER, HEPATOCYTES, AROCLOR 1254, Method: STANDARD PLATE",active; positive
same,mutagenic call,"Test System: AMES SALMONELLA TYPHIMURIUM, Strain/Indicator: TA1535, Metabolic Activation: RAT (MALE), LIVER, HEPATOCYTES, Method: STANDARD PLATE",active; positive
same,mutagenic call,"Test System: AMES SALMONELLA TYPHIMURIUM, Strain/Indicator: TA1535, Metabolic Activation: RAT (PREGNANT FEMALE), LIVER, HEPATOCYTES, AROCLOR 1254, Method: STANDARD PLATE",active; positive
same,mutagenic call,"Test System: AMES SALMONELLA TYPHIMURIUM, Strain/Indicator: TA1535, Metabolic Activation: RAT (PREGNANT FEMALE), LIVER, HEPATOCYTES, Method: STANDARD PLATE",inactive; negative
same,mutagenic call,"Test System: AMES SALMONELLA TYPHIMURIUM, Strain/Indicator: TA1535, Metabolic Activation: RAT, LIVER, HEPATOCYTES, PHENOBARBITAL, Method: PREINCUBATION",active; positive
same,mutagenic call,"Test System: AMES SALMONELLA TYPHIMURIUM, Strain/Indicator: TA1535, Metabolic Activation: RAT, LIVER, S-9, AROCLOR 1254, Method: PREINCUBATION",active; positive
same,mutagenic call,"Test System: AMES SALMONELLA TYPHIMURIUM, Strain/Indicator: TA1535, Metabolic Activation: RAT, LIVER, S-9, AROCLOR 1254, Method: SPIRAL ASSAY",active; positive
same,mutagenic call,"Test System: AMES SALMONELLA TYPHIMURIUM, Strain/Indicator: TA1535, Metabolic Activation: RAT, LIVER, S-9, PHENOBARBITAL AND ALPHA-NAPHTHOFLAVONE, Method: STANDARD PLATE",active; positive
same,mutagenic call,"Test System: AMES SALMONELLA TYPHIMURIUM, Strain/Indicator: TA1535, Metabolic Activation: RAT, LIVER, S-9, PHENOBARBITAL, Method: STANDARD PLATE",active; positive
same,mutagenic call,"Test System: AMES SALMONELLA TYPHIMURIUM, Strain/Indicator: TA1535, Metabolic Activation: RAT, LIVER, S-9, Method: STANDARD PLATE",active; positive
same,mutagenic call,"Test System: AMES SALMONELLA TYPHIMURIUM, Strain/Indicator: TA1537, Metabolic Activation: NONE, Method: SPIRAL ASSAY",inactive; negative
same,mutagenic call,"Test System: AMES SALMONELLA TYPHIMURIUM, Strain/Indicator: TA1537, Metabolic Activation: NONE, Method: STANDARD PLATE",inactive; negative
same,mutagenic call,"Test System: AMES SALMONELLA TYPHIMURIUM, Strain/Indicator: TA1537, Metabolic Activation: RAT, LIVER, S-9, AROCLOR 1254, Method: SPIRAL ASSAY",inactive; negative
same,mutagenic call,"Test System: AMES SALMONELLA TYPHIMURIUM, Strain/Indicator: TA1537, Metabolic Activation: S-9, Method: STANDARD PLATE",inactive; negative
same,mutagenic call,"Test System: CHINESE HAMSTER V-79, Strain/Indicator: V-79/6-THIOGUANINE, Metabolic Activation: NONE, Method: SUSPENSION/PLATE",inactive; negative
same,mutagenic call,"Test System: CHINESE HAMSTER V-79, Strain/Indicator: V-79/6-THIOGUANINE, Metabolic Activation: RAT, LIVER, HEPATOCYTES, Method: SUSPENSION/PLATE",active; positive
same,mutagenic call,"Test System: E. COLI, Strain/Indicator: WP2 (HCR), Metabolic Activation: S-9, Method: STANDARD PLATE",active; positive
same,mutagenic call,"Test System: E. COLI, Strain/Indicator: WP2, Metabolic Activation: NONE, Method: FLUCTUATION (MICROTITER)",active; positive
same,mutagenic call,"Test System: E. COLI, Strain/Indicator: WP2 UVRA, Metabolic Activation: HAMSTER, LIVER, S-9, AROCLOR 1254, Method: STANDARD PLATE",inactive; negative
same,mutagenic call,"Test System: E. COLI, Strain/Indicator: WP2 UVRA, Metabolic Activation: HAMSTER, LIVER, S-9, Method: STANDARD PLATE",inactive; negative
same,mutagenic call,"Test System: E. COLI, Strain/Indicator: WP2 UVRA, Metabolic Activation: MOUSE, LIVER, S-9, AROCLOR 1254, Method: STANDARD PLATE",inactive; negative
same,mutagenic call,"Test System: E. COLI, Strain/Indicator: WP2 UVRA, Metabolic Activation: MOUSE, LIVER, S-9, Method: STANDARD PLATE",inactive; negative
same,mutagenic call,"Test System: E. COLI, Strain/Indicator: WP2 UVRA, Metabolic Activation: NONE, Method: FLUCTUATION (MICROTITER)",active; positive
same,mutagenic call,"Test System: E. COLI, Strain/Indicator: WP2 UVRA, Metabolic Activation: NONE, Method: STANDARD PLATE",inactive; negative
same,mutagenic call,"Test System: E. COLI, Strain/Indicator: WP2 UVRA, Metabolic Activation: RAT, LIVER, S-9, AROCLOR 1254, Method: STANDARD PLATE",inactive; negative
same,mutagenic call,"Test System: E. COLI, Strain/Indicator: WP2 UVRA, Metabolic Activation: RAT, LIVER, S-9, Method: STANDARD PLATE",inactive; negative
same,mutagenic call,"Test System: MOUSE LYMPHOMA, Strain/Indicator: L5178Y (TK+/TK-), Metabolic Activation: NONE, Method: SUSPENSION/PLATE",active; positive
same,mutagenic call,"Test System: UDS RAT HEPATOCYTES, Strain/Indicator: THY INCORP, Metabolic Activation: NONE, Method: AUTORADIOGRAPHY",active; positive
same,mutagenic call,"Test System: UDS RAT HEPATOCYTES, Strain/Indicator: THY INCORP, Metabolic Activation: NONE, Method: AUTORADIOGRAPHY (SERUM-FREE MEDIA)",active; positive
